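1) Cells in 96-well plates. 2) Compound, 48 h, 5 concentrations. 3) Linear interpolation between surrounding doses. 4) Unreached endpoint = highest concentration. GI50 is the concentration that inhibits growth by half.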 Calls of active or inactive are those of the source. No stated cut-off is given here; in the data, active = GI50 up to about 1.1 µM and inactive = higher.
Columns and labels:
Assay in all cases: NCI tumour cell line growth inhibition, 48 h
MDA-MB-231 = system: MDA-MB-231
BT-549 = system: BT-549
MDA-N = system: MDA-N
DU-145 = system: DU-145
LXFL 529 = system: LXFL 529
HOP-18 = system: HOP-18
RXF 631 = system: RXF 631
786-0 = system: 786-0
T47D = system: T47D

| SMILES | GI50 (BT-549) | GI50 (MDA-N) | GI50 (LXFL 529) | GI50 (HOP-18) | GI50 (786-0) | GI50 (T47D) | further results |
| --- | --- | --- | --- | --- | --- | --- | --- |
| O[C@@]12Cc3c([nH]c4ccccc34)[C@@H]3Oc4cccc5c4[C@@]31CCN(CC1CC1)[C@@H]2C5 | 19.8 µM (inactive) | 19.6 µM (inactive) | – | – | – | – | GI50 (MDA-MB-231): 25.7 µM (inactive); GI50 (DU-145): 27 µM (inactive) |
| CCNc1cnc2c(n1)c(=O)n(C)c(=O)n2C | – | – | > 100 µM (inactive) | – | – | – | – |
| CN1CCN(P2(=S)Oc3ccc4ccccc4c3-c3c(ccc4ccccc34)O2)CC1 | – | – | – | > 65.2 µM (inactive) | – | – | – |
| c1ccc(CCn2cncn2)cc1 | – | – | > 100 µM (inactive) | – | – | – | GI50 (RXF 631): > 100 µM (inactive) |
| CC(C)=CCC/C(C)=C/CCC1(C)C=Cc2c(c3ccccc3oc2=O)O1 (configuration not stated) | – | – | – | 17.3 µM (inactive) | – | – | – |
| CNS(=O)(=O)NN(C)S(=O)(=O)c1ccc(F)cc1 | – | – | > 100 µM (inactive) | > 100 µM (inactive) | > 100 µM (inactive) | – | – |
| COc1cc2c(cc1OC)-c1cc3ccccc3c[n+]1CC2 | 54.7 µM (inactive) | > 100 µM (inactive) | – | – | – | 42.6 µM (inactive) | GI50 (MDA-MB-231): > 100 µM (inactive); GI50 (DU-145): > 100 µM (inactive) |
| CCCCCCCCCCCCCCCCCc1cc(Cl)nc(Cl)n1 | > 100 µM (inactive) | – | – | – | > 100 µM (inactive) | – | – |
| Cc1cc(C)n(-c2c(O)ccc(O)c2-n2nc(C)cc2C)n1 | – | – | > 100 µM (inactive) | – | > 100 µM (inactive) | – | GI50 (RXF 631): > 100 µM (inactive) |
| O=C(Nc1cccc(O)c1)C(=O)C(C(=O)c1ccccc1F)C1OC(=O)c2ccccc21 (configuration not stated) | – | – | 16.4 µM (inactive) | – | – | – | GI50 (RXF 631): 21.6 µM (inactive) |
| Nc1ccc(Sc2nnc(N)s2)cc1 | – | > 100 µM (inactive) | – | – | > 100 µM (inactive) | > 100 µM (inactive) | GI50 (MDA-MB-231): > 100 µM (inactive) |
| CC1=NC=C(O)c2ccccc2O1 | – | – | > 100 µM (inactive) | – | > 100 µM (inactive) | – | – |
| CSc1cc(-c2cc3ccccc3o2)oc(=O)c1C#N | – | – | > 100 µM (inactive) | 0.637 µM (active) | – | – | GI50 (RXF 631): 64.7 µM (inactive) |
| COC1=C2CC(C)CC(OC)C(O)C(C)/C=C(\C)C(OC(N)=O)C(OC)/C=C\C=C(/C)C(=O)NC(=C(/C=N/C(C)(C)C)C1=O)C2=O (configuration not stated) | – | – | – | 6.85 µM (inactive) | – | – | – |
| CCN(CC)/[N+]([O-])=N/OC | – | – | > 100 µM (inactive) | – | – | – | – |
| CCOC(=O)/C=C/c1c(C)[nH]c(=O)[nH]c1=O | – | – | – | > 250 µM (inactive) | – | – | – |
| CN(CCCNc1ccc2ncn3c4ccccc4c(=O)c1c23)CCCN1C(=O)c2cccc3cc([N+](=O)[O-])cc(c23)C1=O | 0.106 µM (active) | 0.0321 µM (active) | – | – | – | 1.18 µM (inactive) | GI50 (MDA-MB-231): 0.0201 µM (active) |
| COC(=O)C1=C(C(=O)OC)C2(C)C=CC1O2 (configuration not stated) | 23.1 µM (inactive) | – | – | – | 3.78 µM (inactive) | 3.44 µM (inactive) | GI50 (MDA-MB-231): 16.6 µM (inactive); GI50 (DU-145): 17.9 µM (inactive) |
| CNC1=C(C)C(=O)C2=C(C1=O)C(COC(N)=O)C1(OC)C3NC3CN21 (configuration not stated) | – | 0.574 µM (active) | – | – | – | 1.5 µM (inactive) | – |
| C/C(=N\NS(=O)(=O)c1ccccc1)c1ccccc1 | – | – | – | > 100 µM (inactive) | – | – | – |
| Oc1ccc2ccccc2c1/N=N/c1cccc2ccccc12 | > 100 µM (inactive) | > 100 µM (inactive) | – | – | 66.1 µM (inactive) | > 100 µM (inactive) | GI50 (MDA-MB-231): 49.9 µM (inactive); GI50 (DU-145): > 100 µM (inactive) |
| CC1(C)O[C@@H](C[C@]2(C#N)C[C@H](CCl)OC(C)(C)O2)C[C@@H](C#N)O1 | – | – | – | > 100 µM (inactive) | > 100 µM (inactive) | – | – |
| O=C1Sc2ccccc2/C1=N/Nc1ccccc1[N+](=O)[O-] | – | 57 µM (inactive) | – | – | – | 10.2 µM (inactive) | GI50 (DU-145): > 100 µM (inactive) |
| O=C1C(=O)c2ccccc2C=C1[N+](=O)[O-] | > 100 µM (inactive) | 19.7 µM (inactive) | – | – | 45.1 µM (inactive) | 32.8 µM (inactive) | GI50 (MDA-MB-231): 18.1 µM (inactive); GI50 (DU-145): 49 µM (inactive) |
| C=C1C[C@@H]2C[C@@H](C)CC(O)[C@]2(CCCN)C1O (some centres not stated) | – | – | > 100 µM (inactive) | > 100 µM (inactive) | > 100 µM (inactive) | – | GI50 (RXF 631): > 100 µM (inactive) |
| O=C1CNc2cc(N3CCCCC3)ccc2N1 | > 100 µM (inactive) | 75.2 µM (inactive) | – | – | – | > 100 µM (inactive) | GI50 (DU-145): > 100 µM (inactive) |
| COc1cc(O)cc(/C=C/c2ccc(O)cc2)c1 | 13.6 µM (inactive) | – | – | – | 29.6 µM (inactive) | 44.7 µM (inactive) | GI50 (MDA-MB-231): 16 µM (inactive); GI50 (DU-145): 39 µM (inactive) |
| C=C(C)C(=O)O[C@H]1CC2=C[C@@H](C[C@@]3(C)O[C@@H]3[C@H]3OC(=O)C(=C)[C@@H]31)OC2=O [ELEPHANTOPIN] | – | – | – | 4.33 µM (inactive) | – | – | – |
| COc1cc(O)c2c(c1)C(=O)c1cc(C)cc(O)c1C2=O [PHYSCION] | – | – | > 100 µM (inactive) | 51.9 µM (inactive) | – | – | GI50 (RXF 631): > 100 µM (inactive) |

— ChEMBL document CHEMBL1201862, “PubChem BioAssay data set” (2004)
